Measured values taken from ChEMBL document CHEMBL4330079, “Cyclin G-associated kinase (GAK) affinity and antiviral activity studies of a series of 3-C-substituted isothiazolo[4,3-b]pyridines” (Eur J Med Chem, 2019).
pEC50, pKd: −log10 of the molar value.

What was measured:
[1] = target: T1, Cyclin-G-associated kinase (Homo sapiens, UniProt O14976); assay: Binding affinity to wild type DNA-tagged human GAK (G13 to Y338 residues) expressed in bacterial expression system by quantitative PCR based KINOMEscan assay
T1 sequence (O14976 whole entry): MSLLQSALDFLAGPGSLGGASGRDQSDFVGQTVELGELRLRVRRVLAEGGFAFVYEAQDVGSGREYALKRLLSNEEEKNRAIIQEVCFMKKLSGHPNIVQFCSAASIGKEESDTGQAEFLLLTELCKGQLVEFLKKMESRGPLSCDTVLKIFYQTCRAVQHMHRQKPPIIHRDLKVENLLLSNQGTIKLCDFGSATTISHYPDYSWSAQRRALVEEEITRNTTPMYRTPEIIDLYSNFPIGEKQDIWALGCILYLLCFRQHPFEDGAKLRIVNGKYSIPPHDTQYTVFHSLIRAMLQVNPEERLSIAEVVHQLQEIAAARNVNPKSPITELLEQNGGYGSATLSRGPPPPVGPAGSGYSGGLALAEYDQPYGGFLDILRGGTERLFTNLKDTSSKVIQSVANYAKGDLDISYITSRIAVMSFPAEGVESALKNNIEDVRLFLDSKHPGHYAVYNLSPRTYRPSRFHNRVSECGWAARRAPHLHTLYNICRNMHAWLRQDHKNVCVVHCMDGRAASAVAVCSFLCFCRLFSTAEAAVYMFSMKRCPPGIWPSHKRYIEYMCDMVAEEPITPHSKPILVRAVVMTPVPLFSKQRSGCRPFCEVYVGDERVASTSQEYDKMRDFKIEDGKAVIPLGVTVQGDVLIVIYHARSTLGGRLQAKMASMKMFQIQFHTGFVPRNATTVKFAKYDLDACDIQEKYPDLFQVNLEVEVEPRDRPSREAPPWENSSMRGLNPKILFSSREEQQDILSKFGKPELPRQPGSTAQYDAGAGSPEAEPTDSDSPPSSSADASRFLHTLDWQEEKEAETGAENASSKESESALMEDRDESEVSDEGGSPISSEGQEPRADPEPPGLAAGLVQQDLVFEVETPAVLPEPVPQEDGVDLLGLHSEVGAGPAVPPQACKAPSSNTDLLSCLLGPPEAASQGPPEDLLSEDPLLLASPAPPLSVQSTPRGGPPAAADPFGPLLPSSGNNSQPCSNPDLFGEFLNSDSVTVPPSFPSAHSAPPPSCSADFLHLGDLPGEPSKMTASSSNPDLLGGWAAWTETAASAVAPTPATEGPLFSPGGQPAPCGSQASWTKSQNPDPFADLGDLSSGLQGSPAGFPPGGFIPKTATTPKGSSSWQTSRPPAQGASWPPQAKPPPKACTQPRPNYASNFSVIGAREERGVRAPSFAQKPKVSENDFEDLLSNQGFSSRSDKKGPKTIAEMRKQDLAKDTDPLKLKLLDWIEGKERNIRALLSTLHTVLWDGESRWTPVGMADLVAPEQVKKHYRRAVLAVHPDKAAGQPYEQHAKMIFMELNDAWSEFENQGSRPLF

dengue virus type 2 = assay: Antiviral activity against DENV2 New Guinea C infected in human HuH7 cells after 48 hrs by luciferase reporter gene assay; type: functional, organism-based; conditions: Thailand/NGS-C/1944, Huh-7, 48 h
Huh-7 = assay: Cytotoxicity against human HuH7 cells assessed as reduction in cell viability at 0.01 to 10 uM after 48 hrs by Cell-Titer Glo assay; type: cell-based; conditions: huh-7, 48 h

| SMILES | pKd [1] | pEC50 (dengue virus type 2) | Activity (Huh-7) |
| --- | --- | --- | --- |
| COc1ccc(-c2cnc3c(-c4ccc(C#N)cc4)snc3c2)cc1OC | < 4.52 |  |  |
| COC(=O)c1ccc(-c2snc3cc(-c4ccc(OC)c(OC)c4)cnc23)cc1 | < 4.52 |  |  |
| COc1ccc(-c2cnc3c(C#Cc4ccccc4)snc3c2)cc1OC | < 4.52 |  |  |
| COc1ccc(-c2cnc3c(-c4ccc(OC)c(OC)c4)snc3c2)cc1OC |  | 5.47 | Non-Toxic |
| COc1ccc(-c2cnc3c(-c4ccncc4)snc3c2)cc1OC | 6.28 |  |  |
| COc1ccc(-c2cnc3c(-c4ccccc4)snc3c2)cc1OC | 6.11 |  |  |
| COc1ccc(-c2cnc3c(-c4ccsc4)snc3c2)cc1OC | 6.07 |  |  |
